Data as given in patent EP1161410B1, “RETINOID ANTAGONISTS AND USE THEREOF” (Basilea Pharmaceutica AG, priority 1999, dated 2000).

What was measured:
neonatal mouse calvaria = test: Bone resorption assay, calcium release from neonatal mouse calvaria in tissue culture; assay type: cell-based, Swiss albino mice
Protocol: A series of agents are known to induce or stimulate bone resorption. In this assay retinoid antagonists were tested for their capacity to inhibit or counteract the bone resorptive activity of bone resorption inducers.
Bone resorption was determined by quantification of calcium release from neonatal mouse calvaria (skull bones) in a tissue culture system, into supernatant medium. Calvaria were prepared from 4 days old mice (body weight 4-4.5 g) of time controlled mated Swiss albino mice. Frontal and parietal calvarial parts were dissected under a stereo-microscope and halved along the median suture. Half calvaria from all animals were randomly distributed to 6-well culture dishes (NUNC), containing stainless steel grids to support the bones at the interface of gas and medium. The tissue is incubated in BGJ medium (Bioconcept, Switzerland) according to a specified formulation supplemented with 1 mg/ml BSA (bovine serum albumin, SIGMA). Calvaria were cultured at 37°C in humidified atmosphere of 5% CO2 and 95% air. After 24 hours of preincubation, they were transferred to new dishes containing 1.7 ml fresh medium and test substances. Bone resorption inducers and retinoid antagonists were tested either as single agents or in combination. The cultures were then run for 72 hours. Calcium concentrations in culture supernatants were measured immediately after each incubation period. Stable, free calcium was determined in 25 µl samples with a spectrophotometric method using a methylthymol blue containing kit (Biomérieux), (E.M. Gindler and J.D. King, Am. J. Clin. Pathol. 1972, 58, 376-382). The resorptive response was expressed as µg calcium released per half calvarium during 3 days treatment.
Additional tests were done to examine calcium remaining in the calvaria. Calcium was extracted with 5% trichloroacetic acid (TCA) and determined in 50 µl samples after neutralization with NaOH. Furthermore, bone tissue viability was determined to exclude cytotoxicity. This was quantified by the colorimetric MTT tetrazolium test (T. Mosmann, J. Immunol. Methods 1983, 65, 55-63).
Bone resorption induced by the various agents was determined by measuring the amount of calcium released from half calvaria into the supernatant medium. Calcium release is indicated in µg per half calvarium in 1.7 ml medium. Calcium release from calvaria into medium as well as uptake of calcium from medium into calvaria can be measured. Efficacy of retinoid antagonists to inhibit the activity of bone resorption inducers is expressed as % inhibition. It is calculated from the difference between the amount of released calcium by bone resorption inducers alone and the amount of released calcium by their combination with retinoid antagonists. Retinoid antagonists alone induce neither calcium release nor uptake. Basal resorption rate in vehicle controls was 5 or less than 5%.

[1] = Effect on weight loss induced by all-trans retinoic acid in mice; conditions: female mice
Description: Effect of retinoids with RXR antagonistic activity on weight loss induced by all-trans retinoic acid in mice.
The test compounds were solubilized/suspended in arachis oil and applied intraperitoneally into female mice (25/30 g) for 5 days a week during 2 weeks.

IL-10 = IL-10 production by activated monocytes (SAC + IFN-γ); assay type: cell-based, human; conditions: SAC+IFN-γ alone 1040 pg/ml
IL-12 [2] = test: IL-12 production by PBMC primed with IFNγ and stimulated with SAC; assay type: cell-based, human; conditions: IFNγ+SAC alone 360
Protocol: (§1) THP-1 cells were obtained from American Tissue Culture Collection and cultured in complete medium. To assay for IL-12 production, THP-1 cells, 1.25 x 10^6 cells/ml, were stimulated with S. aureus Cowan strain (SAC) (1/1000) and human recombinant interferon-γ (huIFN-γ (1000 U/ml) [Ma et al., J. Exp. Med. 183, 147-157 (1996)]. Alternatively, 0.5 x 10^6 human peripheral blood mononuclear cells (PBMC) (1 ml culture in 48 well plates) were primed with huIFN-γ (1000 U/ml) for 16 hours at 37°C, and then stimulated with SAC (1/1000). Supernatants were collected after 48 hours and freezed at -20 °C until assayed [Panina-Bordignon et al., J. Clin. Invest. 100, 1513-1519 (1997)].
(§2) IL-12 production was measured by specific enzyme linked immuno sorbant assay (ELISA), using 20C2 antibody (rat anti human IL-12 heterodimer p40-p35), at 2.5 µg/ml in coating buffer, and peroxidase-conjugated 4D6 antibody (rat anti human IL-12) at 250 ng/ml in assay buffer as described [Zhang et al., J. Clin. Invest. 93, 1733-1739 (1994)]. Standard (recombinant human IL-12, 800 pg/ml to 6 pg/ml) and samples (100 µl) diluted in assay buffer were added to duplicate wells. Absorbance was read at 450-650 nm. The unknown IL-12 concentrations of the samples were read from the corresponding standard curve and multiplied by the corresponding dilution factor. Maximal IL-12 production varied between 200 and 400 pg/ml.
(§3) Lyophilized retinoid antagonists were diluted in DMSO under yellow light, on ice at a concentration of 2 mM. Serial dilutions (1 µM-1 pM) were prepared in complete RPMI medium. 10 µl of each dilution was added to 1 ml culture.

IL-12 [3] = test: IL-12 production by THP-1 cells stimulated with IFNγ and SAC; assay type: cell-based, human; conditions: retinoid antagonist (1 µg) added at time 0 together with IFNγ, IFNγ+SAC alone 275
Protocol: as §1, §2, §3

TNF-α = TNF-α production by activated monocytes (SAC + IFN-γ); assay type: cell-based, human; conditions: SAC+IFN-γ alone 1840-2000 pg/ml
IL-12 [4] = test: IL-12 production by activated monocytes (SAC + IFN-γ), ELISA; assay type: cell-based, human; conditions: SAC+IFN-γ alone 120-126 pg/ml
Protocol: THP-1 cells were obtained from American Tissue Culture Collection and cultured in complete medium. […] Exp. Med. 183, 147-157 (1996)]. […] Supernatants were collected after 48 hours and freezed at -20 °C until assayed [[…]-Bordignon et al., J. Clin. Invest. 100, 1513-1519 (1997)]. […] Clin. Invest. 93, 1733-1739 (1994)]. […] Absorbance was read at 450-650 nm. The unknown IL-12 concentrations of the samples were read from the corresponding standard curve and multiplied by the corresponding dilution factor. […] Serial dilutions (1 μM-1 pM) were prepared in complete RPMI medium. 10 μl of each dilution was added to 1 ml culture.

[5] = A 200 mg/kg alone, intraperitoneally, n=2
[6] = C 100 mg/kg + A 200 mg/kg, intraperitoneally, n=2
[7] = C 200 mg/kg + A 200 mg/kg, intraperitoneally, n=2

C=C1/C(=C\C=C2/CCC[C@]3(C)[C@@H]([C@H](C)CCCC(C)(C)O)CC[C@@H]23)C[C@@H](O)C[C@@H]1O [Calcitriol, 1,25-dihydroxyvitamin D3]
Calcium release per half calvarium (neonatal mouse calvaria; Calcitriol 0.3 nM alone, 72 hours): 4 ± 3 µg
Calcium release per half calvarium (neonatal mouse calvaria; Calcitriol 1 nM alone, 72 hours): 9 ± 4 µg
Calcium release per half calvarium (neonatal mouse calvaria; Calcitriol 3 nM alone, 72 hours): 13 ± 3 µg

CCOc1c(\C(C)=C/C=C/C(C)=C/C(=O)O)cc(C(C)(C)C)cc1C(C)(C)C [Compound A, (2E,4E,6Z)-7-(3,5-di-tert.butyl-2-ethaxyphenyl]-3-methyl-2,4,6-octatrienoic acid]
% survival after 14 days [1, 5]: 100%
% weight change after 4 days [1, 5]: +15%
% weight change after 7 days [1, 5]: +26%
% survival after 14 days [1, 6]: 100%
% weight change after 4 days [1, 6]: -13%
% weight change after 7 days [1, 6]: -8%
% survival after 14 days [1, 7]: 100%
% weight change after 4 days [1, 7]: -23%
% weight change after 7 days [1, 7]: -23%

CC1=C(/C=C/C(C)=C/C=C/C(C)=C/C(=O)O)C(C)(C)CCC1 [Compound C, all-trans retinoic acid]
Calcium release per half calvarium (neonatal mouse calvaria; all-trans RA 0.01 μM alone, series of antagonist B): 1 ± 2 µg
Calcium release per half calvarium (neonatal mouse calvaria; all-trans RA 0.01 μM alone, series of antagonist H): 1 ± 4 µg
Calcium release per half calvarium (neonatal mouse calvaria; all-trans RA 0.1 μM alone, series of antagonist B): 13 ± 3 µg
Calcium release per half calvarium (neonatal mouse calvaria; all-trans RA 0.1 μM alone, series of antagonist H): 19 ± 11 µg
Calcium release per half calvarium (neonatal mouse calvaria; all-trans RA 1 μM alone, series of antagonist B): 17 ± 3 µg
Calcium release per half calvarium (neonatal mouse calvaria; all-trans RA 1 μM alone, series of antagonist H): 23 ± 8 µg
% survival after 14 days ([1]; C 100 mg/kg alone, intraperitoneally, n=10): 20%
% survival after 14 days ([1]; C 200 mg/kg alone, intraperitoneally 5 days a week during 2 weeks, n=2): 0%

CC1=C(/C=C/C(C)=C\C=C\C(C)=C\C(=O)O)C(C)(C)CCC1 [Compound E, 9-cis retinoic acid]
Calcium release per half calvarium (neonatal mouse calvaria; 9-cis RA 0.01 μM alone, series of antagonist B): 3 ± 3 µg
Calcium release per half calvarium (neonatal mouse calvaria; 9-cis RA 0.01 μM alone, series of antagonist H): 6 ± 10 µg
Calcium release per half calvarium (neonatal mouse calvaria; 9-cis RA 0.1 μM alone, series of antagonist B): 17 ± 10 µg
Calcium release per half calvarium (neonatal mouse calvaria; 9-cis RA 0.1 μM alone, series of antagonist H): 22 ± 8 µg
Calcium release per half calvarium (neonatal mouse calvaria; 9-cis RA 1 μM alone, series of antagonist B): 18 ± 4 µg
Calcium release per half calvarium (neonatal mouse calvaria; 9-cis RA 1 μM alone, series of antagonist H): 40 ± 11 µg

CC1(C)CCC(C)(C)c2cc3c(cc21)CCc1c(-c2ccc(C(=O)O)cc2)cn(Cc2cccnc2)c1-3 [Compound I, 4-(7,7,10,10-Tetramethyl-1-pyridin-3-ylmethyl-4,5,7,8,9,10-hexahydro-1H-naphto[2,3-g]indol-3-yl)-benzoic acid]
IL-10 (IL-10; antagonist 10 nM): 971 pg/mL
IL-10 (IL-10; antagonist 100 nM): 983 pg/mL
IL-10 (IL-10; antagonist 1000 nM): 1116 pg/mL
PBMC IL-12 (IL-12 [2]; retinoid antagonist (1 µg) added after 16 hours together with SAC): 367 pg/mL
PBMC IL-12 (IL-12 [2]; retinoid antagonist (1 µg) added at time 0 together with IFNγ): 371 pg/mL
THP-1 IL-12 (IL-12 [3]): 364 pg/mL
TNF-α (TNF-α; antagonist 10 nM): 2592 pg/mL
TNF-α (TNF-α; antagonist 100 nM): 2752 pg/mL
TNF-α (TNF-α; antagonist 1000 nM): 2884 pg/mL
IL-12 (IL-12 [4]; antagonist 10 nM): 173 pg/mL
IL-12 (IL-12 [4]; antagonist 100 nM): 205 pg/mL
IL-12 (IL-12 [4]; antagonist 1000 nM): 321 pg/mL
